Source: paper PMC3996911 (Molecular cell, 2014)

Columns and labels:
PPX = biological target: T1, PPX (Escherichia coli, UniProt P0AFL6); assay: specific activity after incubation with N-chlorotaurine; format: biochemical; details: covalent (oxidation of Cys169 and, to a lesser extent, Cys85)
T1 sequence (P0AFL6 2-513): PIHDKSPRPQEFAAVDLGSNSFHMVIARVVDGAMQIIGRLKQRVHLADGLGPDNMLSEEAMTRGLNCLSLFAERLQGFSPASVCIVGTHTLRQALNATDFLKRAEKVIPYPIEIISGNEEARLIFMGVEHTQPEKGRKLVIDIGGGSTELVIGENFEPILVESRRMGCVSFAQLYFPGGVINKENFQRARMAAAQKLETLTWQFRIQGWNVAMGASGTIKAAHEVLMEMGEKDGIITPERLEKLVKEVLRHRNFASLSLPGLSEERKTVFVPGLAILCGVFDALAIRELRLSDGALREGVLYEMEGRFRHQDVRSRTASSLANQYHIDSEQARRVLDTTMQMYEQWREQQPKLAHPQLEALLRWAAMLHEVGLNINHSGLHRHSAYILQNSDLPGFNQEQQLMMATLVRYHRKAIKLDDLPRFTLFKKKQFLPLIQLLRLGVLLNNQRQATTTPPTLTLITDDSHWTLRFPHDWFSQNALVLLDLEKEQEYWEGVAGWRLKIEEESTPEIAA

PPK = PPK (Escherichia coli, UniProt P0A7B1)
Sequence of PPK (P0A7B1 2-688): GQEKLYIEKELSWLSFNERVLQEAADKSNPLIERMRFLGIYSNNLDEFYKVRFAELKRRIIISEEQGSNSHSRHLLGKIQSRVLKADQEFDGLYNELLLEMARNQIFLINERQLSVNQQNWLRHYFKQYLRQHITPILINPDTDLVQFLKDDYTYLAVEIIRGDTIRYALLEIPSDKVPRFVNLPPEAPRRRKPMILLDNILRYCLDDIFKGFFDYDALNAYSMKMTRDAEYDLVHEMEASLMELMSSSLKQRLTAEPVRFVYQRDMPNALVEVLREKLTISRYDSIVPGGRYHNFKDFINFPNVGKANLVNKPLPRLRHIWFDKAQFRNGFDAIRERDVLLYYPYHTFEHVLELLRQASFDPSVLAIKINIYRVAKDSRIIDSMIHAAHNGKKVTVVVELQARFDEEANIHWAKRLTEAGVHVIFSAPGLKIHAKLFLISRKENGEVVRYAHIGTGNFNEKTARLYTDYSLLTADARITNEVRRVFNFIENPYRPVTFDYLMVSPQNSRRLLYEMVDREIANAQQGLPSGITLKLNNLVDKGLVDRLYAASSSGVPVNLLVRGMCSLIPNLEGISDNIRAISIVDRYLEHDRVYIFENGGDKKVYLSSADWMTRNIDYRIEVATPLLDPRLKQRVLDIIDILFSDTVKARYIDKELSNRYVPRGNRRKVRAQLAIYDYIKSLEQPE

Row | SMILES | specific activity after incubation with N-chlorotaurine (PPX) | specific activity, forward reaction (polyP synthesis) (PPK)
1 | O=S(=O)(O)CCNCl [N-chlorotaurine] | Purified PPX proved to be highly sensitive to inactivation by N-chlorotaurine | –
2 | Nc1ncnc2c1ncn2[C@@H]1O[C@H](COP(=O)(O)OP(=O)(O)OP(=O)(O)O)[C@@H](O)[C@H]1O [ATP] | – | Specific activity of PPK’s forward and reverse reactions (see Figure 1C)
